Results on two compounds are retold here after PMC2767256 (Biochemical pharmacology, 2009).

Usually IC50 stands for the concentration needed to halve the response being measured. Read a low IC50 as greater potency.

Common to all, as to assay type: biochemical
In assay [1] the target is SULT1A3 (Homo sapiens, UniProt P0DMM9). Put plainly: inhibition of dopamine sulfation with […]PAPS in BeWo cytosol.
Assay [2] deals with SULT1A1 (Homo sapiens, UniProt P50225). The experiment in a line: inhibition of 4-nitrophenol sulfation with […]PAPS in BeWo cytosol.
The target in assay [3] is T1, SULT2A1 (Homo sapiens, UniProt Q06520).
T1 sequence (Q06520 1-285): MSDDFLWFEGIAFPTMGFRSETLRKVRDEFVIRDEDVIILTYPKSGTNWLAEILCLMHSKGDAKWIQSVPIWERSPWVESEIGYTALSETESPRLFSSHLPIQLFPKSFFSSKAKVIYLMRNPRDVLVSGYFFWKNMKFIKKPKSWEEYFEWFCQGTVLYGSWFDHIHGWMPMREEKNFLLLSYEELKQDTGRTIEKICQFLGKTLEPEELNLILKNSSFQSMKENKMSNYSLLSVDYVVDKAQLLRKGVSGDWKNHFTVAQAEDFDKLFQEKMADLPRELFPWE
Put plainly: sulfation of [3H]DHEA.

Chain of SULT1A3 (P0DMM9 whole entry): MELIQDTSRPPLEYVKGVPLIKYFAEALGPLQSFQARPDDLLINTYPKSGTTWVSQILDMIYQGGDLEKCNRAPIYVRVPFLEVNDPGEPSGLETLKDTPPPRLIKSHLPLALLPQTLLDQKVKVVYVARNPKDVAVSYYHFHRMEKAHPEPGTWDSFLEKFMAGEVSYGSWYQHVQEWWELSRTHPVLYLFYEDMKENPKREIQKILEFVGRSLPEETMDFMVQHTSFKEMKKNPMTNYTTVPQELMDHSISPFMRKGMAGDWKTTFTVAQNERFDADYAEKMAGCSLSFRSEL
Chain of SULT1A1 (P50225 whole entry): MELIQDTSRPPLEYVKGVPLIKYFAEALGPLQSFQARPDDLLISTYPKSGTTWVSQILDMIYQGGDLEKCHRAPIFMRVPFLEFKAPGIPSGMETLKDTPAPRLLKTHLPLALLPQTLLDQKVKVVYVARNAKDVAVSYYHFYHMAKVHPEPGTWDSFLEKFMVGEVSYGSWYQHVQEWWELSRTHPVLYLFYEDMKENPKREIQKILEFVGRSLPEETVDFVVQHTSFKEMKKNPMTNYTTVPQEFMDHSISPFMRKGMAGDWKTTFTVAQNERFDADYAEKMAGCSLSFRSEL

Regarding `O=[N+]([O-])c1cc(Cl)c(O)c(Cl)c1` [DCNP, 2,6-dichloro-4-nitrophenol], the results for the IC50 in assay [1] and in assay [2] were 830 µM and 0.052 µM, respectively.

Consider `C[C@]12CC[C@H](O)CC1=CC[C@@H]1[C@@H]2CC[C@]2(C)C(=O)CC[C@@H]12` [DHEA, dehydroepiandrosterone], for which, in assay [3], the “sulfation of [3H]DHEA (3 and 10 μM) by purified SULT2A1” value was “Under the same assay conditions, purified SULT2A1 readily sulfated DHEA”.
